Experimental data reported in US10202361B2, “Pyridazinones as herbicides” (E I DU PONT DE NEMOURS AND COMPANY, priority 2014, dated 2019).

What was measured:
Assay in all cases: Test D pre-/postemergence controlled growth environment herbicide test
Assay type in all cases: in vivo
Settings in all cases: scale 0 to 100
[1] = test system: chickweed (common chickweed, Stellaria media)
Summary of the method: (§1)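 Herbicidal effect, both preemergence (silt loam soil) and postemergence (1- to 4-leaf plants, peat-based medium), was scored 14–21 d post-treatment on a 0–100 control scale relative to untreated plants; applications used a non-phytotoxic solvent formulation with surfactant.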

[2] = test system: ryegrass, Italian (Italian ryegrass, Lolium multiflorum)
Summary of the method: as §1

[3] = test system: oat, wild (wild oat, Avena fatua)
Summary of the method: as §1

[4] = test system: wheat, winter (winter wheat, Triticum aestivum)
Summary of the method: as §1

[5] = test system: pigweed (Amaranthus retroflexus)
Summary of the method: as §1

[6] = test system: field violet (Viola arvensis)
Summary of the method: as §1

[7] = test system: Russian thistle (Salsola kali)
Summary of the method: as §1

[8] = test system: foxtail, green (green foxtail, Setaria viridis)
Summary of the method: as §1

[9] = test system: galium (catchweed bedstraw, Galium aparine)
Summary of the method: as §1

[10] = test system: oilseed rape (Brassica napus)
Summary of the method: as §1

[11] = test system: kochia (Kochia scoparia)
Summary of the method: as §1

Cc1cc(=O)n(-c2ccc(F)cc2)nc1Oc1ccnc(C(F)(F)F)c1 [Compound 14, 2-(4-fluorophenyl)-5-methyl-6-[[2-(trifluoromethyl)-4-pyridinyl]oxy]-3 (2H)-pyridazinone]
Plant response rating ([1]; Postemergence, 16 g ai/ha): 50 | Plant response rating ([1]; Postemergence, 31 g ai/ha): 60 | Plant response rating ([1]; Postemergence, 62 g ai/ha): 45 | Plant response rating ([1]; Postemergence, 125 g ai/ha): 70 | Plant response rating ([1]; Postemergence, 250 g ai/ha): 90 | Plant response rating ([1]; Preemergence, 16 g ai/ha): 10 | Plant response rating ([1]; Preemergence, 125 g ai/ha): 100 | Plant response rating ([1]; Preemergence, 250 g ai/ha): 95 | Plant response rating ([2]; Postemergence, 16 g ai/ha): 5 | Plant response rating ([2]; Postemergence, 31 g ai/ha): 5 | Plant response rating ([2]; Postemergence, 62 g ai/ha): 10 | Plant response rating ([2]; Postemergence, 125 g ai/ha): 15 | Plant response rating ([2]; Postemergence, 250 g ai/ha): 15 | Plant response rating ([2]; Preemergence, 16 g ai/ha): 0 | Plant response rating ([2]; Preemergence, 31 g ai/ha): 0 | Plant response rating ([2]; Preemergence, 62 g ai/ha): 0 | Plant response rating ([2]; Preemergence, 125 g ai/ha): 15 | Plant response rating ([2]; Preemergence, 250 g ai/ha): 25 | Plant response rating ([3]; Postemergence, 16 g ai/ha): 10 | Plant response rating ([3]; Postemergence, 31 g ai/ha): 10 | Plant response rating ([3]; Postemergence, 62 g ai/ha): 15 | Plant response rating ([3]; Postemergence, 125 g ai/ha): 20 | Plant response rating ([3]; Postemergence, 250 g ai/ha): 30 | Plant response rating ([3]; Preemergence, 16 g ai/ha): 0 | Plant response rating ([3]; Preemergence, 31 g ai/ha): 0 | Plant response rating ([3]; Preemergence, 62 g ai/ha): 0 | Plant response rating ([3]; Preemergence, 125 g ai/ha): 10 | Plant response rating ([3]; Preemergence, 250 g ai/ha): 20 | Plant response rating ([4]; Postemergence, 16 g ai/ha): 5 | Plant response rating ([4]; Postemergence, 31 g ai/ha): 10 | Plant response rating ([4]; Postemergence, 62 g ai/ha): 15 | Plant response rating ([4]; Postemergence, 125 g ai/ha): 15 | Plant response rating ([4]; Postemergence, 250 g ai/ha): 15 | Plant response rating ([4]; Preemergence, 16 g ai/ha): 0 | Plant response rating ([4]; Preemergence, 31 g ai/ha): 5 | Plant response rating ([4]; Preemergence, 62 g ai/ha): 5 | Plant response rating ([4]; Preemergence, 125 g ai/ha): 5 | Plant response rating ([4]; Preemergence, 250 g ai/ha): 10 | Plant response rating ([5]; Postemergence, 16 g ai/ha): 60 | Plant response rating ([5]; Postemergence, 31 g ai/ha): 60 | Plant response rating ([5]; Postemergence, 62 g ai/ha): 70 | Plant response rating ([5]; Postemergence, 125 g ai/ha): 75 | Plant response rating ([5]; Postemergence, 250 g ai/ha): 75 | Plant response rating ([5]; Preemergence, 16 g ai/ha): 35 | Plant response rating ([5]; Preemergence, 31 g ai/ha): 95 | Plant response rating ([5]; Preemergence, 62 g ai/ha): 75 | Plant response rating ([5]; Preemergence, 125 g ai/ha): 100 | Plant response rating ([5]; Preemergence, 250 g ai/ha): 100 | Plant response rating ([6]; Postemergence, 16 g ai/ha): 60 | Plant response rating ([6]; Postemergence, 31 g ai/ha): 70 | Plant response rating ([6]; Postemergence, 62 g ai/ha): 65 | Plant response rating ([6]; Postemergence, 125 g ai/ha): 100 | Plant response rating ([6]; Postemergence, 250 g ai/ha): 100 | Plant response rating ([6]; Preemergence, 16 g ai/ha): 85 | Plant response rating ([6]; Preemergence, 31 g ai/ha): 95 | Plant response rating ([6]; Preemergence, 62 g ai/ha): 100 | Plant response rating ([6]; Preemergence, 125 g ai/ha): 95 | Plant response rating ([6]; Preemergence, 250 g ai/ha): 100 | Plant response rating ([7]; Postemergence, 16 g ai/ha): 20 | Plant response rating ([7]; Postemergence, 31 g ai/ha): 10 | Plant response rating ([7]; Postemergence, 62 g ai/ha): 15 | Plant response rating ([7]; Postemergence, 125 g ai/ha): 20 | Plant response rating ([7]; Postemergence, 250 g ai/ha): 35 | Plant response rating ([7]; Preemergence, 16 g ai/ha): 0 | Plant response rating ([7]; Preemergence, 31 g ai/ha): 50 | Plant response rating ([7]; Preemergence, 62 g ai/ha): 85 | Plant response rating ([7]; Preemergence, 125 g ai/ha): 50 | Plant response rating ([7]; Preemergence, 250 g ai/ha): 95 | Plant response rating ([8]; Postemergence, 16 g ai/ha): 30 | Plant response rating ([8]; Postemergence, 31 g ai/ha): 10 | Plant response rating ([8]; Postemergence, 62 g ai/ha): 20 | Plant response rating ([8]; Postemergence, 125 g ai/ha): 15 | Plant response rating ([8]; Postemergence, 250 g ai/ha): 15 | Plant response rating ([8]; Preemergence, 16 g ai/ha): 0 | Plant response rating ([8]; Preemergence, 31 g ai/ha): 15 | Plant response rating ([8]; Preemergence, 62 g ai/ha): 40 | Plant response rating ([8]; Preemergence, 125 g ai/ha): 70 | Plant response rating ([8]; Preemergence, 250 g ai/ha): 100 | Plant response rating ([9]; Postemergence, 16 g ai/ha): 60 | Plant response rating ([9]; Postemergence, 31 g ai/ha): 60 | Plant response rating ([9]; Postemergence, 62 g ai/ha): 60 | Plant response rating ([9]; Postemergence, 125 g ai/ha): 65 | Plant response rating ([9]; Postemergence, 250 g ai/ha): 75 | Plant response rating ([9]; Preemergence, 16 g ai/ha): 0 | Plant response rating ([9]; Preemergence, 31 g ai/ha): 0 | Plant response rating ([9]; Preemergence, 62 g ai/ha): 0 | Plant response rating ([9]; Preemergence, 125 g ai/ha): 5 | Plant response rating ([10]; Postemergence, 16 g ai/ha): 25 | Plant response rating ([10]; Postemergence, 31 g ai/ha): 50 | Plant response rating ([10]; Postemergence, 62 g ai/ha): 15 | Plant response rating ([10]; Postemergence, 125 g ai/ha): 45 | Plant response rating ([10]; Postemergence, 250 g ai/ha): 55 | Plant response rating ([10]; Preemergence, 16 g ai/ha): 0 | Plant response rating ([10]; Preemergence, 31 g ai/ha): 5 | Plant response rating ([10]; Preemergence, 62 g ai/ha): 10 | Plant response rating ([10]; Preemergence, 125 g ai/ha): 15 | Plant response rating ([10]; Preemergence, 250 g ai/ha): 70 | Plant response rating ([11]; Postemergence, 16 g ai/ha): 60 | Plant response rating ([11]; Postemergence, 31 g ai/ha): 60 | Plant response rating ([11]; Postemergence, 62 g ai/ha): 65 | Plant response rating ([11]; Postemergence, 125 g ai/ha): 85 | Plant response rating ([11]; Postemergence, 250 g ai/ha): 90 | Plant response rating ([11]; Preemergence, 16 g ai/ha): 35 | Plant response rating ([11]; Preemergence, 31 g ai/ha): 65 | Plant response rating ([11]; Preemergence, 62 g ai/ha): 95 | Plant response rating ([11]; Preemergence, 125 g ai/ha): 70 | Plant response rating ([11]; Preemergence, 250 g ai/ha): 100
